Where two headings read alike, the source gives them in different places.
What was measured:
[1] = test system: two-spotted spider mites (Tetranychus urticae); conditions: liquid composition containing 500 ppm by weight of compound
Description: (§1) The activities of individual compounds of formula (I) were determined using a variety of pests. The pests were treated with a liquid composition containing 500 parts per million (ppm) by weight of a compound of formula (I). Each composition was made by dissolving the compound in an acetone and ethanol (50:50 by volume) mixture and diluting the solution with water containing 0.05% by volume of a wetting agent, SYNPERONIC NP8, until the liquid composition contained the required concentration of the compound.
(§2) The test procedure adopted with regard to each pest was essentially the same and comprised supporting a number of the pests on a medium, which was usually a substrate, a host plant or a foodstuff on which the pests feed, and treating either or both the medium and the pests with a composition. Pest mortality was assessed usually between two and five days after treatment.
(§3) Similar tests were conducted against, independently, two-spotted spider mites (Tetranychus urticae), fruit flies (Drosophila melanogaster), tobacco budworms (Heliothis virescens), diamond back moth (Plutella xylostella) and corn root worm (Diabrotica balteata).

[2] = test system: fruit flies (Drosophila melanogaster); assay: pesticidal test against fruit flies; conditions: liquid composition containing 500 ppm by weight of compound
Description: as §1, §2, §3

[3] = test system: corn root worm (Diabrotica balteata); assay: pesticidal test against corn root worm; conditions: liquid composition containing 500 ppm by weight of compound
Description: as §1, §2, §3

[4] = test system: Puccinia recondita (PUCCRT); assay: foliar fungicide test on wheat (Example 19); format: in vivo; conditions: 100 ppm foliar (Prot) application on wheat; inoculated 6 hours or one day after application
[5] = test system: diamond back moth (Plutella xylostella); assay: pesticidal test against diamond back moth; conditions: liquid composition containing 500 ppm by weight of compound
Description: as §1, §2, §3

[6] = test system: Blumeria graminis f.sp. tritici (ERYSGT); assay: foliar fungicide test on wheat (Example 19); format: in vivo; conditions: 100 ppm foliar (Prot) application on wheat; inoculated 6 hours or one day after application
[7] = test system: peach potato aphids (Myzus persicae); conditions: 500 ppm by weight; infested Chinese cabbage leaves sprayed; mortality assessed after three days
Description: (§4) This Example illustrates the pesticidal/insecticidal properties of compounds of formula (I). The activities of individual compounds of formula (I) were determined using a variety of pests. The pests were treated with a liquid composition containing 500 parts per million (ppm) by weight of a compound of formula (I). Each composition was made by dissolving the compound in an acetone and ethanol (50:50 by volume) mixture and diluting the solution with water containing 0.05% by volume of a wetting agent, SYNPERONIC NP8, until the liquid composition contained the required concentration of the compound.
as §2
(§5) In each test against peach potato aphids (Myzus persicae), Chinese cabbage leaves were infested with aphids, the infested leaves were sprayed with a test composition and pest mortality was assessed after three days.

[8] = test system: Plasmopara viticola (PLASVI); assay: foliar fungicide test on vines (Example 19); format: in vivo; conditions: 100 ppm foliar (Prot) application on vines; inoculated 6 hours or one day after application
[9] = test system: Phytophthora infestans lycopersici (PHYTIN); format: in vivo; conditions: 100 ppm foliar (Prot) application on tomatoes; inoculated 6 hours or one day after application
[10] = test system: tobacco budworms (Heliothis virescens); assay: pesticidal test against tobacco budworms; conditions: liquid composition containing 500 ppm by weight of compound
Description: as §1, §2, §3

[11] = test system: Pyricularia oryzae (PYRIOR); format: in vivo; conditions: 100 ppm foliar spray on rice; inoculated one day after chemical application (Prot)
[12] = test system: Venturia inaequalis (VENTIN); assay: foliar fungicide test on apples (Example 18); format: in vivo; conditions: 100 ppm foliar spray on apples; inoculated one day after chemical application (Prot)
[13] = test system: Puccinia recondita (PUCCRT); assay: foliar fungicide test on wheat (Example 18); format: in vivo; conditions: 100 ppm foliar spray on wheat; inoculated one day after chemical application (Prot)
[14] = test system: peach potato aphids (Myzus persicae); assay: whole plant or invertebrate; conditions: 72 h, read-out: mortality (score) Mp
Description: as §4, §2, §5

[15] = test system: Phytophthora infestans lycopersici (PHYTIN); format: in vivo; conditions: 100 ppm foliar spray on tomatoes; inoculated one day after chemical application (Prot)
[16] = test system: Uncinula necator (UNCINE); assay: foliar fungicide test on vines (Example 18); format: in vivo; conditions: 100 ppm foliar spray on vines; inoculated one day before chemical application (Erad)

Structure (SMILES): Cc1nsc(NC(=O)C(=CO)c2ccc3oc(CC(C)(C)C)nc3c2)c1Cl [Table 12 Compound 7]
- mortality (score) Tu [1]: 9 (9 indicates 80-100% mortality)
- mortality (score) Dm [2]: 0 (represents less than 40% mortality)
- mortality (score) Db [3]: 9 (9 indicates 80-100% mortality)
- PUCCRT Prot, PRCO (Percentage Reduction from Control) [4]: 97
- mortality (score) Px [5]: 9 (9 indicates 80-100% mortality)
- ERYSGT Prot, PRCO (Percentage Reduction from Control) [6]: 78
- mortality (score) Mp [7]: 0 (represents less than 40% mortality)
- PLASVI Prot, PRCO (Percentage Reduction from Control) [8]: 100

Structure (SMILES): Cc1nsc(NC(=O)C(F)c2ccc3oc(CC(C)(C)C)nc3c2)c1Cl (centres unmarked) [Table 5 Compound 7]
- mortality (score) Tu [1]: 9 (9 indicates 80-100% mortality)
- PUCCRT Prot, PRCO (Percentage Reduction from Control) [4]: 96
- ERYSGT Prot, PRCO (Percentage Reduction from Control) [6]: 100
- mortality (score) Mp [7]: 9 (9 indicates 80-100% mortality)
- PLASVI Prot, PRCO (Percentage Reduction from Control) [8]: 98

Structure (SMILES): Cc1nsc(NC(=O)Cc2ccc3oc(CC(C)(C)C)nc3c2)c1Cl
- melting point: 144 to 145 °C

Structure (SMILES): COC=C(C(=O)Nc1snc(C)c1Cl)c1ccc2oc(CC(C)(C)C)nc2c1 [Table 13 Compound 7]
- mortality (score) Dm [2]: 0 (represents less than 40% mortality)
- mortality (score) Px [5]: 0 (represents less than 40% mortality)
- mortality (score) Mp [7]: 9 (9 indicates 80-100% mortality)
- PLASVI Prot, PRCO (Percentage Reduction from Control) [8]: 100
- PHYTIN Prot, PRCO (Percentage Reduction from Control) [9]: 100

Structure (SMILES): Cc1nsc(NC(=O)C(CC#N)c2ccc3oc(CC(C)(C)C)nc3c2)c1Cl (centres unmarked) [Table 20 Compound 7]
- mortality (score) Hv [10]: 0 (represents less than 40% mortality)
- mortality (score) Tu [1]: 9 (9 indicates 80-100% mortality)
- mortality (score) Dm [2]: 0 (represents less than 40% mortality)
- mortality (score) Db [3]: 0 (represents less than 40% mortality)
- mortality (score) Px [5]: 9 (9 indicates 80-100% mortality)
- mortality (score) Mp [7]: 5 (5 indicates 40-79% mortality)
- PLASVI Prot, PRCO (Percentage Reduction from Control) [8]: 100
- PHYTIN Prot, PRCO (Percentage Reduction from Control) [9]: 72

Structure (SMILES): Cc1nsc(NC(=O)C(=CN(C)C)c2ccc3oc(CC(C)(C)C)nc3c2)c1Cl [Table 14 Compound 7, N-(4-chloro-3-methylisothiazol-5-yl)-α-[(dimethylamino)methylene]-[2-(2,2-dimethylpropyl)benzoxazol-5-yl]acetamide]
- PYRIOR Prot, PRCO (Percentage Reduction from Control) [11]: 92
- mortality (score) Tu [1]: 9 (9 indicates 80-100% mortality)
- VENTIN Prot, PRCO (Percentage Reduction from Control) [12]: 85
- PUCCRT Prot, PRCO (Percentage Reduction from Control) [13]: 98
- mortality at 500 ppm [14]: 80 to 100%
- ERYSGT Prot, PRCO (Percentage Reduction from Control) [6]: 83
- PHYTIN Prot, PRCO (Percentage Reduction from Control) [15]: 0
- UNCINE Erad, PRCO (Percentage Reduction from Control) [16]: 100

Source: patent US6703347B2, “Isothiazole derivatives and their use as pesticides” (Syngenta Limited, priority 2000, dated 2004)
